Starred links: 1 amine or outer side, 2 acyl side, 3 side chain; linkers in the order of their positions; H or OH if unused. Non-standard residues stand in square brackets, D forms with d. Groups on a side chain read outwards from the residue. *: point of attachment. C20 diacid = O=C(O)CCCCCCCCCCCCCCCCCCC(=O)*; αMePhe(2-F) = C[C@](N)(Cc1ccccc1F)C(=O)O; γGlu = O=C(O)[C@H](CCC(=O)[*:2])N[*:1]; NMeY = CN[C@@H](Cc1ccc(O)cc1)C(=O)O; αMeF = C[C@](N)(Cc1ccccc1)C(=O)O; αMeL = CC(C)C[C@](C)(N)C(=O)O; Orn = NCCC[C@H](N)C(=O)O; AEEA = NCCOCCOCC(=O)O; Aib = CC(C)(N)C(=O)O
Key:
Assay type in all cases: cell-based
hGIPR [1] = molecular target: T1, hGIPR (Homo sapiens, UniProt P48546); test: Functional cAMP activation in the presence of 0.1% casein (no HSA); conditions: in the presence of 0.1% casein (no HSA); geometric mean; read-out: Relative cAMP EC50, hGIPR;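 further: intracellular cAMP rise after 30 min at 37 °C read by HTRF against a standard curve, scaled between buffer alone (0%) and top control ligand concentration (100%), four-parameter fit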
T1 sequence (P48546 22-466): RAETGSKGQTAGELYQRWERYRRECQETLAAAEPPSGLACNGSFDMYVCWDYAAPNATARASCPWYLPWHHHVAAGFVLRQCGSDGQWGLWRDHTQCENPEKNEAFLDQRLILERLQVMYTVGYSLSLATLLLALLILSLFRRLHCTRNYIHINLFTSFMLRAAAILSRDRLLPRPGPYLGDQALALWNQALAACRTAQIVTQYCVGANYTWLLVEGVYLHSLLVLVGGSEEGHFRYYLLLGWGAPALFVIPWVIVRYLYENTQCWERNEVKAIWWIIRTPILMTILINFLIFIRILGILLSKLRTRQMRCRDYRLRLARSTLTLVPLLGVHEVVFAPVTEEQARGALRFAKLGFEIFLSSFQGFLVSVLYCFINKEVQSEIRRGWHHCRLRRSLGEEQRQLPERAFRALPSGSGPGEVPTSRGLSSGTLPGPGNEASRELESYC

human GcgR = human GcgR (Homo sapiens, UniProt P47871); test: Functional cAMP activity in the presence of 1% HSA; conditions: read-out: cAMP Rel EC50, hGcgR
hGLP-1R [2] = molecular target: T2, hGLP-1R (Homo sapiens, UniProt P43220); test: Functional cAMP activity in the presence of 1% HSA; conditions: read-out: cAMP Rel EC50, hGLP-1R
Target sequence in this assay (P43220 24-463): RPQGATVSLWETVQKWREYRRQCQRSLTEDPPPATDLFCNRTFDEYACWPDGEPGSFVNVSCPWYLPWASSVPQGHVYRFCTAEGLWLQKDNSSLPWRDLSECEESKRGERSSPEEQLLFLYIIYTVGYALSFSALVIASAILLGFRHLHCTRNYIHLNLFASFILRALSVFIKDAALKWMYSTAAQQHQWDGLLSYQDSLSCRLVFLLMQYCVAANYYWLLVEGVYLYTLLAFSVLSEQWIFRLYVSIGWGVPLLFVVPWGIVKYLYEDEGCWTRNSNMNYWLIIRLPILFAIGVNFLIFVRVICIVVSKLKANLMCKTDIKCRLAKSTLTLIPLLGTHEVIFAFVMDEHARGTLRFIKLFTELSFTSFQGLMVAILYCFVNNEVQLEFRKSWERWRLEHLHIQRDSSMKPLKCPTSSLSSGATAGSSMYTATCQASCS

hGcgR = hGcgR (Homo sapiens, UniProt P47871); test: Functional cAMP activation in the presence of 0.1% casein (no HSA); conditions: in the presence of 0.1% casein (no HSA); geometric mean; read-out: Relative cAMP EC50, hGcgR;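 further: intracellular cAMP rise after 30 min at 37 °C, read by HTRF against a cAMP standard curve, scaled from buffer only (0%) to maximal control ligand response (100%)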
hGIPR [3] = molecular target: T1, hGIPR; test: Functional cAMP activity in the presence of 1% HSA; conditions: read-out: cAMP Rel EC50, hGIPR
hGLP-1R [4] = molecular target: T2, hGLP-1R; test: Functional cAMP activation in the presence of 0.1% casein (no HSA); conditions: in the presence of 0.1% casein (no HSA); geometric mean; read-out: Relative cAMP EC50, hGLP-1R;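 further: intracellular cAMP rise after 30 min at 37 °C read by HTRF, normalized between buffer only (0%) and maximal control ligand (100%), four-parameter variable-slope fit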
Target sequence in this assay (P43220 24-463): as above

hGLP-1R [5] = molecular target: T2, hGLP-1R; test: GLP-1R CHO cell β-arrestin recruitment assay; parameters: host or cells: CHO-K1 (PathHunter, assay-ready frozen cells); conditions: for EC50: CHO-K1 PathHunter, β-arrestin-2, 0.1% casein, read-out: hGLP1R β-arrestin Rel EC50; for % Stimulation Max: normalized to GLP-1(7-36) as maximum control;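 on all read-outs here: luminescence read after 90 min peptide exposure at 37 °C and a further 60 min with detection reagent at room temperature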
Target sequence in this assay (P43220 24-463): as above
Target sequence in this assay (P32121 whole entry partner): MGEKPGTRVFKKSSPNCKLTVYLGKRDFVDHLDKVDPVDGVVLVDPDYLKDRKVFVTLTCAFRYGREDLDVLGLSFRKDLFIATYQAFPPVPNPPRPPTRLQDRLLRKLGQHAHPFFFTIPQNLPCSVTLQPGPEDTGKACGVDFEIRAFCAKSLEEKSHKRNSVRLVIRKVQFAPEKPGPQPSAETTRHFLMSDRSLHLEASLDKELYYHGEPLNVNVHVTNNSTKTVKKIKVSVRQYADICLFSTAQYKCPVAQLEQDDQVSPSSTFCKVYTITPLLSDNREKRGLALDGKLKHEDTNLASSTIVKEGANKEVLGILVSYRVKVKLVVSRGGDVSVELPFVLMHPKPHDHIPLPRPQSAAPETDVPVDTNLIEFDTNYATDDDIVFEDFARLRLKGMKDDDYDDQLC
Description: CHO-KI cells expressing Pro-Link-tagged Human GLP-1R and enzyme-acceptor-tagged β-arrestin-2 may be obtained from DiscoveRx and prepared as assay-ready frozen cells. Test peptides are solubilized in DMSO and serial dilutions are performed using the Echo acoustic dispenser (LabCyte). Assay media is the PathHunter Cell Assay Buffer (DiscoveRx) containing 0.1% w/v hydrolyzed Casein (Sigma). […] Plates are incubated for 90 minutes in a 37′C/5% C02 incubator and 10 μl of PathHunter detection reagent is added (DiscoveRx) and plates are incubated at room temperature for 60 minutes. Luminescence signal is measured. Peptide concentration-response curves fit to a four-parameter logistic model to calculate potency as an EC50.

human GcgR, sequence (P47871 26-477): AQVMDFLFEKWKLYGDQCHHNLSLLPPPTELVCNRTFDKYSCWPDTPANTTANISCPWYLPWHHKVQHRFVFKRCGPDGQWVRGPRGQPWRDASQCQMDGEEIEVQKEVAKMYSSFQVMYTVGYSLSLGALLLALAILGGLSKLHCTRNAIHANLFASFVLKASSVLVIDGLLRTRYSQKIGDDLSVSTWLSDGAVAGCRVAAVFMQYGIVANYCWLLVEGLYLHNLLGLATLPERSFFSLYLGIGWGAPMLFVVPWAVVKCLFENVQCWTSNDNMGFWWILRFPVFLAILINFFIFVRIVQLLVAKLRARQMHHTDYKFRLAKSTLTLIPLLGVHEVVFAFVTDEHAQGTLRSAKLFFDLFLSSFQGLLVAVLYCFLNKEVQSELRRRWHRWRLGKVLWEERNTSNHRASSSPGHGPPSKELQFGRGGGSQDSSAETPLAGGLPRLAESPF
hGcgR, sequence (P47871 26-477): as above

Substance	EC50 (hGIPR [1])	EC50 (human GcgR)	EC50 (hGLP-1R [2])	EC50 (hGcgR)	EC50 (hGIPR [3])	EC50 (hGLP-1R [4])	EC50 (hGLP-1R [5])	% Stimulation Max (hGLP-1R [5])
H-[NMeY][Aib]QGT[αMeF]TSDYSILLDKQAAK([AEEA-AEEA-γGlu-C20 diacid])AFVQWLIEGGPSSGEPPPSEG-NH2 [Example 302]	0.7 nM	1370 nM	73.6 nM	4.47 nM	91.8 nM	0.621 nM	11.2 nM	56.6%
H-Y[Aib]QGTFTSDYSI[αMeL]LDKQAAK([AEEA-AEEA-γGlu-C20 diacid])AFVEWLLAGGPSSGEPPPSEG-NH2 [Example 305]	1 nM	1500 nM	415 nM	6.73 nM	92.4 nM	1.48 nM	23.3 nM	58.3%
H-Y[Aib]QGTFTSDYSI[αMeL]LDKIAAK([AEEA-AEEA-γGlu-C20 diacid])[Orn]FVQYLIAGGPSSGEPPPSEG-NH2 [Example 308]		4950 nM	477 nM	14.2 nM	237 nM	3.15 nM	16.9 nM	41.4%
H-Y[Aib]QGT[αMePhe(2-F)]TSDYSKLLDKQAQK([AEEA-γGlu-C20 diacid])QFIEYLIEGGPSSGEPPPSEG-NH2 [Example 309]	0.32 nM	3910 nM	251 nM	9.28 nM	424 nM	0.808 nM	6.72 nM	47.2%
H-Y[Aib]QGT[αMePhe(2-F)]TSDYSKILDKIAQK([AEEA-γGlu-C20 diacid])AFIEYLLEGGPSSGEPPPSEG-NH2 [Example 311]	0.113 nM	2500 nM	1080 nM	2.08 nM	26.1 nM	3.36 nM	19.2 nM	39.6%
H-[NMeY][Aib]QGT[αMeF]TSDYSILLDKIAAK([AEEA-AEEA-γGlu-C20 diacid])AFVQWLIAGGPSSGEPPPSEG-NH2 [Example 300]	0.0975 nM	976 nM	98 nM	6.54 nM	12.9 nM	1.05 nM	15.7 nM	40.3%
H-Y[Aib]QGT[αMePhe(2-F)]TSDYSILLDKIAQK([AEEA-γGlu-C20 diacid])AFIEYLLEGGPSSGEPPPSEG-NH2 [Example 293]	0.0587 nM	1740 nM	295 nM	4.01 nM	9.63 nM	0.994 nM	11.9 nM	54.6%
H-Y[Aib]QGTFTSDYSI[αMeL]LDKK([AEEA-AEEA-γGlu-C20 diacid])AA[Aib]AFIEYLLEGGPSSGEPPPSEG-NH2 [Example 294]	0.318 nM	518 nM	554 nM	1.07 nM	54.1 nM	2.16 nM	27.7 nM	35.3%
H-Y[Aib]QGT[αMePhe(2-F)]TSDYSKLLDKIAQK([AEEA-γGlu-C20 diacid])AFIEYLIEGGPSSGEPPPSEG-NH2 [Example 304]	0.127 nM	1720 nM	172 nM	2.31 nM	48 nM	0.551 nM	9.21 nM	47.8%

From patent US20240270821A1, “GIP/GLP1/GCG TRI-RECEPTOR AGONISTS AND USES THEREOF” (priority 2023, published 2024)
